Bounds are passed on as bounds.

Test [1] concerns the target T1, catalytic domain (JH1, amino acids 808-1132) of human JAK2 (Homo sapiens, UniProt O60674).
T1 construct: catalytic domain (JH1, amino acids 808-1132) of human JAK2; His (N); purchased BPS Bioscience 40450; host or cells: baculovirus expression system
Put plainly: JAK2 HTRF Enzyme Activity Assay. It counts as biochemical. The note with it: ATP (30 μM or 1 mM; not stated which for the table), 60 minutes at 25° C.; read-out: JAK2 HTRF (Ex. D). A digest of the protocol: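 N-terminal His-tagged, baculovirus-expressed JH1 domain (0.015 nM) reacts 60 min at 25 °C with 500 nM biotinylated peptide and 30 μM or 1 mM ATP in Tris pH 7.5/10 mM MgCl2. Phosphorylation is detected by HTRF with Eu-anti-phosphotyrosine (PY20) and streptavidin-APC after EDTA stop. IC50 comes from four-parameter fits.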
(In general: Time-resolved FRET reads energy transfer from a long-lived donor to a nearby acceptor.)

Test [2] deals with T2, pseudo-kinase domain (JH2, amino-acids 536-812) of human V617F mutant JAK2 (Homo sapiens, UniProt O60674, F794H/V617F/W659A/W777A).
T2 construct: JH2, amino-acids 536-812 with 3 surface mutations W659A, W777A, F794H; His (C); purchased BPS Bioscience 79498; host or cells: baculovirus expression system
T2 sequence (O60674 536-812 V617F/W659A/W777A/F794H): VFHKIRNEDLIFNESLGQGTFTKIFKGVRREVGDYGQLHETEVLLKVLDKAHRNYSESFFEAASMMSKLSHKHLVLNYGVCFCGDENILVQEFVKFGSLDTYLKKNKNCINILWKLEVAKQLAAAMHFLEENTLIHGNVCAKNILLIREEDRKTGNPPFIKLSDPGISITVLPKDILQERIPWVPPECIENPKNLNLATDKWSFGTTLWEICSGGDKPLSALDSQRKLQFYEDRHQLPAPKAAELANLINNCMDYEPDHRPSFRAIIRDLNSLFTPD
Kind of test: JAK2 LanthaScreen JH2-V617F Binding Assay. The note with it: 50 nM Fluorescent JAK2-JH2 Tracer, 1 hour at 25° C.; read-out: JH2 BIND V617F (Ex. C). The gist of the method:
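Biotinylated His-Avi-tagged JH2 construct (536-812, W659A/W777A/F794H) at 0.26 nM, with 50 nM fluorescent JH2 tracer and 0.25 nM streptavidin-Tb, in pH 7.5 Tris/MgCl2 buffer; 1 h at 25° C. Non-specific binding defined with 2 mM ATP. IC50 derived from TR-FRET signal by four-parameter dose-response fit.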

Test [3] deals with T3, catalytic domain (JH1, amino acids 826-1132) of human JAK2 (Homo sapiens, UniProt O60674).
T3 construct: catalytic domain (JH1, amino acids 826-1132) of human JAK2; FLAG (N); purchased Carna Biosciences 08-445-20N; host or cells: baculovirus expression system
T3 sequence (O60674 826-1132): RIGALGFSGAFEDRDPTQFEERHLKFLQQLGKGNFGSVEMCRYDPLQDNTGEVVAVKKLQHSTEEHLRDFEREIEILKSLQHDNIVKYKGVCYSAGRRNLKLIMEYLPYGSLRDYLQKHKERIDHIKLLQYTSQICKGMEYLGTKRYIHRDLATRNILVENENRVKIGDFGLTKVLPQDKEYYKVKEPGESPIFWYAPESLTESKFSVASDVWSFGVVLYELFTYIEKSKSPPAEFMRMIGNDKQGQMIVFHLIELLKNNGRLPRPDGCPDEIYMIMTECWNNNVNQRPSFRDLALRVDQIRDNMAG
Kind of test: JAK2 LanthaScreen JH1 Binding Assay. The note with it: 50 nM fluorescent JAK2-JH1 tracer, 2 hours at 25° C.; read-out: JH1 BIND (EX. A). A digest of the protocol:
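FLAG-tagged biotinylated JAK2 JH1 (1.5 nM) was incubated 2 h at 25° C with compound, 50 nM fluorescent tracer and 0.5 nM Streptavidin-Tb in Tris pH 7.5 buffer. Tracer displacement read by TR-FRET; nonspecific binding defined with 2 mM ATP. IC50 from four-parameter fit.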

The target in test [4] is T4, pseudo-kinase domain (JH2, amino-acids 536-812) of human Wild Type JAK2 (Homo sapiens, UniProt O60674, F794H/W659A/W777A).
T4 construct: JH2, amino-acids 536-812 with 3 surface mutations W659A, W777A, F794H; His (C); purchased BPS Bioscience 79463; host or cells: baculovirus expression system
T4 sequence (O60674 536-812 W659A/W777A/F794H): as the sequence (O60674 536-812 V617F/W659A/W777A/F794H) above, with F82V counted along it
Kind of test: JAK2 LanthaScreen JH2-WT Binding Assay. The note with it: 50 nM Fluorescent JAK2-JH2 Tracer, 1 hour at 25° C.; read-out: JH2 BIND WT (EX. B). The gist of the method: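 JH2 domain (0.145 nM; His-Avi-tagged, biotinylated, baculovirus-expressed) incubated 1 h at 25° C. with compounds, 50 nM fluorescent JH2 tracer and 0.25 nM streptavidin-Tb in pH 7.5 Tris buffer with MgCl2, EGTA, DTT. Non-specific binding defined with 2 mM ATP. TR-FRET tracer displacement read; IC50 from four-parameter fit.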

T1 sequence (O60674 808-1132): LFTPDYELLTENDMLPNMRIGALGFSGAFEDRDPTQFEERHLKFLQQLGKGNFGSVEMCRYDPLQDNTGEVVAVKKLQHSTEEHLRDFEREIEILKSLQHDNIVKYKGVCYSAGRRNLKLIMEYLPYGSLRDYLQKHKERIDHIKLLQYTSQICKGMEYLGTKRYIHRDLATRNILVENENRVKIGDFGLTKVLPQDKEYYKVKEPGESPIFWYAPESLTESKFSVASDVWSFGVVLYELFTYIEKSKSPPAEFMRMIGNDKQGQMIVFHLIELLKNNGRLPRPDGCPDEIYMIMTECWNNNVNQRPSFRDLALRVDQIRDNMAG

For the molecule `[2H]C([2H])([2H])n1c(=O)n([C@@H]2CC[C@@H](NC(=O)OC)C2)c2cc(Nc3cc(C(C)O)c4cccc(C(F)(F)F)c4n3)ncc21` (stereo partly drawn) [Example 2, Methyl ((1R,3R)-3-(6-((4-(1-hydroxyethyl)-8-(trifluoromethyl)quinolin-2-yl)amino)-3-(methyl-d3)-2-oxo-2,3-dihydro-1H-imidazo[4,5-c]pyridin-1-yl)cyclopentyl)carbamate], the IC50 in test [1] was > 1000 nM; in test [2], ≤ 10 nM; in test [3], > 1000 nM; in test [4], ≤ 10 nM.

Regarding `[2H]C([2H])([2H])n1c(=O)n([C@@H]2CC[C@@H](NC(=O)OC)C2)c2cc(Nc3cc(C(C)(C)O)c4cccc(C(F)(F)F)c4n3)ncc21` [Example 9, Methyl ((1R,3R)-3-(6-((4-(2-hydroxypropan-2-yl)-8-(trifluoromethyl)quinolin-2-yl)amino)-3-(methyl-d3)-2-oxo-2,3-dihydro-1H-imidazo[4,5-c]pyridin-1-yl)cyclopentyl)carbamate], the IC50 in test [1] is > 1000 nM; in test [2] it was ≤ 10 nM; in test [3], > 1000 nM; in test [4], ≤ 10 nM.

Consider `COC(=O)N[C@@H]1CC[C@@H](n2c(=O)n(C)c3cnc(Nc4ccc5ncc(C#N)n5n4)cc32)C1` [Example 42, Methyl ((1R,3R)-3-(6-((3-cyanoimidazo[1,2-b]pyridazin-6-yl)amino)-3-methyl-2-oxo-2,3-dihydro-1H-imidazo[4,5-c]pyridin-1-yl)cyclopentyl)carbamate], for which the IC50 in test [1] is > 1000 nM; in test [2], ≤ 10 nM; in test [3], > 1000 nM; in test [4], ≤ 10 nM.

As to `[2H]C([2H])([2H])n1c(=O)n([C@@H]2CC[C@@H](NC(=O)OC)C2)c2cc(Nc3cc(NC(=O)COC)c4cccc(C(F)(F)F)c4n3)ncc21` [Example 22, Methyl ((1R,3R)-3-(6-((4-(2-methoxyacetamido)-8-(trifluoromethyl)quinolin-2-yl)amino)-3-(methyl-d3)-2-oxo-2,3-dihydro-1H-imidazo[4,5-c]pyridin-1-yl)cyclopentyl)carbamate], the IC50 in test [1] was > 1000 nM; in test [2] it was ≤ 10 nM; in test [3] it was > 1000 nM; in test [4], ≤ 10 nM.
